Measured values: patent US20200339625A1, “NOVEL RADIOMETAL-BINDING COMPOUNDS FOR DIAGNOSIS OR TREATMENT OF PROSTATE SPECIFIC MEMBRANE ANTIGEN-EXPRESSING CANCER” (PROVINCIAL HEALTH SERVICES AUTHORITY, priority 2017, published 2020)
Blank lines part the entries; values can stand above or below the compound they belong to.

Columns and labels:
[1] = tested on: metastatic prostate cancer; details: advanced metastatic prostate cancer patients; cited from earlier work
PSMA on LNCaP cells = molecular target: T1, PSMA on LNCaP cells (Homo sapiens, UniProt Q04609); experiment: In vitro competition binding assay (displacement of 18F-DCFPyL); details: for Ki: inhibition of 18F-DCFPyL binding to PSMA on LNCaP cells, n=3
T1 construct: endogenous in cells; host or cells: LNCaP prostate cancer cells
Experimental: 1.14 In Vitro Competition Binding Assay
In vitro competition binding assays were conducted as previously reported using LNCaP prostate cancer cells and ^18F-DCFPyL as the radioligand. ^18 Briefly, LNCaP cells (400,000/well) were plated onto a 24-well poly-D-lysine coated plate for 48 h. Growth media was removed and replaced with HEPES buffered saline (50 mM HEPES, pH 7.5, 0.9% sodium chloride) and the cells were incubated for 1 h at 37° C. ^18F-DCFPyL (0.1 nM) was added to each well (in triplicate) containing various concentrations ([…]) of tested compounds (Lu-PSMA-617 or Lu-HTK01169). Non-specific binding was determined in the presence of 10 μM non-radiolabeled DCFPyL. The assay mixtures were further incubated for 1 h at 37° C. with gentle agitation. Then, the buffer and hot ligand were removed, and cells were washed twice with cold HEPES buffered saline. To harvest the cells, 400 μL of 0.25% trypsin solution was added to each well. Radioactivity was measured on a PerkinElmer (Waltham, Mass.) Wizard2 2480 automatic gamma counter. Nonlinear regression analyses and Ki calculations were performed using the GraphPad Prism 7 software.

[2] = tested on: mice bearing PSMA-expressing LNCAP cancer xenografts; experiment: Biodistribution of 68Ga-labeled compounds; assay type: in vivo
Procedure, shortened: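 NOD-SCID IL2RγKO male mice carried subcutaneous LNCaP xenografts grown to 5-8 mm over 5-6 weeks. Organs and blood were collected at 1 or 3 h after injection of the radiotracer and gamma-counted. Uptake was normalized to injected dose via a standard curve and expressed as %ID/g.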

[3] = tested on: mice bearing LNCaP tumor xenografts; experiment: PET/CT imaging of 68Ga-labeled compounds; assay type: in vivo
Procedure, shortened: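 Male NOD SCID IL2Rγ KO mice bore subcutaneous LNCaP xenografts (1×10^7 cells, tumours 5-8 mm) and received 6-8 MBq tracer via tail vein under 2% isoflurane. At 50 min p.i., a 10-min CT and a 10-min static PET were acquired. For the 3 h time point, scanning began at 170 min p.i. with a 15-min static PET.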

T1 sequence (Q04609 whole entry): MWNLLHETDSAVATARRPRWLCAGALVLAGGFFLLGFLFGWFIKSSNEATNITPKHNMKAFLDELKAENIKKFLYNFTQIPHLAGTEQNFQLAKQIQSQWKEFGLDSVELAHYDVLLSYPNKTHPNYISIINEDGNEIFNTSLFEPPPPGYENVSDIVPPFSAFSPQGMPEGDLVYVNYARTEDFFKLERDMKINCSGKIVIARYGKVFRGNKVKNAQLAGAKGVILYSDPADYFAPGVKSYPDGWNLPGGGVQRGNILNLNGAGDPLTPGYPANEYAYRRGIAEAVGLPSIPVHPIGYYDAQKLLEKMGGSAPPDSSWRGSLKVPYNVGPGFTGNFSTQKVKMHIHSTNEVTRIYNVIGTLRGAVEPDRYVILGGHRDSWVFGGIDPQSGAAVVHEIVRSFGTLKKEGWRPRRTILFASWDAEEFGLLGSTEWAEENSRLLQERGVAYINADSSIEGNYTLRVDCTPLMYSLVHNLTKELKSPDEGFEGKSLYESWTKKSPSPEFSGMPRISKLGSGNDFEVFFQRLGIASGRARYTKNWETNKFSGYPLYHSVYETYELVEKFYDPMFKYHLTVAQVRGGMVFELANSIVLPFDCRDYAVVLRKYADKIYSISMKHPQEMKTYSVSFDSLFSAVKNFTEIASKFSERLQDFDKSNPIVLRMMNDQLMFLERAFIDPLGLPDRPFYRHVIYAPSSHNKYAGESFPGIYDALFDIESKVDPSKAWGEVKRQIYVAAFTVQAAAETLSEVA

Structure (SMILES): O=C([O-])CC[C@H](NC(=O)N[C@@H](CCCCNC(=O)[C@H](Cc1ccc2ccccc2c1)NC(=O)[C@H]1CC[C@H](CNC(=O)CN2CCN(CC(=O)[O-])CCN(CC(=O)[O-])CCN(CC(=O)[O-])CC2)CC1)C(=O)[O-])C(=O)[O-].[225Ac].[H+].[H+].[H+] [^225Ac-PSMA-617]
response [1]: impressive responses

Structure (SMILES): O=C([O-])CN1CCN(CC(=O)[O-])CCN(CC(=O)NCC2CCC(C(=O)N[C@@H](Cc3ccc4ccccc4c3)C(=O)NCCCC[C@H](NC(=O)N[C@@H](CCC(=O)O)C(=O)O)C(=O)O)CC2)CCN(CC(=O)[O-])CC1.[Lu+3] (some centres unmarked) [Lu-PSMA-617, reference compound]
Ki (PSMA on LNCaP cells): 240 ± 60 pM

Structure (SMILES): O=C([O-])CN1CCN(CC(=O)[O-])CCN(CC(=O)NCCCC[C@H](NC(=O)[C@H](CCC(=O)O)NC(=O)CCCc2ccc(I)cc2)C(=O)NC[C@H]2CC[C@H](C(=O)N[C@@H](Cc3ccc4ccccc4c3)C(=O)NCCCC[C@H](NC(=O)N[C@@H](CCC(=O)O)C(=O)O)C(=O)O)CC2)CCN(CC(=O)[O-])CC1.[Lu+3] [Lu-HTK01169]
Ki (PSMA on LNCaP cells): 40 ± 10 pM
improvement in PSMA binding compared to Lu-PSMA-617 (PSMA on LNCaP cells; ratio of Ki values): 6 fold

Adrenal glands uptake ([2]; 1 h post-injection): 4.20 ± 1.21 % ID/g
Blood uptake ([2]; 1 h post-injection): 26.7 ± 3.02 % ID/g
Bone uptake ([2]; 1 h post-injection): 1.04 ± 0.26 % ID/g
Brain uptake ([2]; 1 h post-injection): 0.36 ± 0.06 % ID/g
Fat uptake ([2]; 1 h post-injection): 2.13 ± 0.57 % ID/g
Heart uptake ([2]; 1 h post-injection): 6.09 ± 0.97 % ID/g
Intestine uptake ([2]; 1 h post-injection): 1.64 ± 0.27 % ID/g
Kidneys uptake ([2]; 1 h post-injection): 14.7 ± 2.13 % ID/g
Lacrimal uptake ([2]; 1 h post-injection): 0.69 ± 0.26 % ID/g
Liver uptake ([2]; 1 h post-injection): 3.87 ± 1.00 % ID/g
Lungs uptake ([2]; 1 h post-injection): 10.2 ± 2.20 % ID/g
Muscle uptake ([2]; 1 h post-injection): 1.37 ± 0.17 % ID/g
Pancreas uptake ([2]; 1 h post-injection): 2.00 ± 0.17 % ID/g
Salivary uptake ([2]; 1 h post-injection): 3.90 ± 0.70 % ID/g
Seminal uptake ([2]; 1 h post-injection): 1.31 ± 0.38 % ID/g
Spleen uptake ([2]; 1 h post-injection): 3.13 ± 1.05 % ID/g
Stomach uptake ([2]; 1 h post-injection): 0.58 ± 0.20 % ID/g
Tail uptake ([2]; 1 h post-injection): 8.87 ± 4.26 % ID/g
Testes uptake ([2]; 1 h post-injection): 2.74 ± 0.38 % ID/g
Thyroid uptake ([2]; 1 h post-injection): 4.95 ± 0.79 % ID/g
Tumor uptake ([2]; 1 h post-injection): 11.2 ± 3.33 % ID/g
Tumor:Blood ratio ([2]; 1 h post-injection): 0.42 ± 0.11
Tumor:Muscle ratio ([2]; 1 h post-injection): 8.04 ± 1.69
Tumor:kidney ratio ([2]; 1 h post-injection): 0.75 ± 0.17
Urine uptake ([2]; 1 h post-injection): 3.97 ± 2.56 % ID/g
Adrenal glands uptake ([2]; 3 h post-injection): 4.46 ± 1.42 % ID/g
Blood uptake ([2]; 3 h post-injection): 21.2 ± 2.21 % ID/g
Bone uptake ([2]; 3 h post-injection): 1.54 ± 0.36 % ID/g
Brain uptake ([2]; 3 h post-injection): 0.30 ± 0.06 % ID/g
Fat uptake ([2]; 3 h post-injection): 2.47 ± 1.61 % ID/g
Heart uptake ([2]; 3 h post-injection): 4.85 ± 0.67 % ID/g
Intestine uptake ([2]; 3 h post-injection): 1.63 ± 0.18 % ID/g
Kidneys uptake ([2]; 3 h post-injection): 17.5 ± 3.83 % ID/g
Lacrimal uptake ([2]; 3 h post-injection): 1.44 ± 0.37 % ID/g
Liver uptake ([2]; 3 h post-injection): 2.80 ± 0.46 % ID/g
Lungs uptake ([2]; 3 h post-injection): 8.21 ± 1.21 % ID/g
Muscle uptake ([2]; 3 h post-injection): 1.33 ± 0.24 % ID/g
Pancreas uptake ([2]; 3 h post-injection): 1.96 ± 0.20 % ID/g
Salivary uptake ([2]; 3 h post-injection): 3.45 ± 0.40 % ID/g
Seminal uptake ([2]; 3 h post-injection): 1.15 ± 0.16 % ID/g
Spleen uptake ([2]; 3 h post-injection): 2.11 ± 0.44 % ID/g
Stomach uptake ([2]; 3 h post-injection): 0.79 ± 0.23 % ID/g
Tail uptake ([2]; 3 h post-injection): 6.86 ± 2.42 % ID/g
Testes uptake ([2]; 3 h post-injection): 3.02 ± 0.80 % ID/g
Thyroid uptake ([2]; 3 h post-injection): 3.72 ± 0.33 % ID/g
Tumor uptake ([2]; 3 h post-injection): 14.2 ± 1.99 % ID/g
Tumor:Blood ratio ([2]; 3 h post-injection): 0.67 ± 0.07
Tumor:Muscle ratio ([2]; 3 h post-injection): 10.8 ± 1.56
Tumor:kidney ratio ([2]; 3 h post-injection): 0.83 ± 0.11
Urine uptake ([2]; 3 h post-injection): 6.15 ± 3.78 % ID/g
change of tumor uptake from 1 h to 3 h post-injection ([3]; PET/CT images): uptake in tumors increases over time
blood retention (qualitative) ([3]; PET/CT images at 1 h and 3 h post-injection, comparison within the figure): some extent of blood retention
Structure (SMILES): O=C([O-])CN1CCN(CC(=O)[O-])CCN(CC(=O)NCCCC[C@H](NC(=O)CNC(=O)CCCc2ccc(Br)cc2)C(=O)NC[C@H]2CC[C@H](C(=O)N[C@@H](Cc3ccc4ccccc4c3)C(=O)NCCCC[C@H](NC(=O)N[C@@H](CCC(=O)O)C(=O)O)C(=O)O)CC2)CCN(CC(=O)[O-])CC1.[68Ga+3] [^68Ga-HTK03058]
